Reference: PubChem BioAssay (NCI)
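GI50 is the concentration that inhibits growth by half. TGI: total growth inhibition.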

Columns and labels:
Assay in all cases: NCI-60 cell line screen, 384-well format; in the data active = GI50 below about 0.43 µM; inactive = the rest
[1] = system: HS 578T breast
[2] = system: NCI-H23 lung
[3] = system: OVCAR-4 ovarian
[4] = system: NCI-H226 lung
[5] = system: RPMI-8226 leukemia
[6] = system: OVCAR-8 ovarian
[7] = system: A549 NSCLC
[8] = system: MDA-MB-468 breast
[9] = system: NCI-H322M lung
[10] = system: A498 renal
[11] = system: T-47D breast
[12] = system: ACHN renal
[13] = system: HL-60(TB) leukemia
[14] = system: DU-145 prostate
[15] = system: SK-OV-3 ovarian
[16] = system: CCRF-CEM leukemia
[17] = system: HOP-92 NSCLC
[18] = system: RXF 393 renal
[19] = system: K-562 leukemia
[20] = system: IGROV1 ovarian
[21] = system: HCT-116 colon
[22] = system: HT29 colon
[23] = system: MDA-MB-435 melanoma
[24] = system: KM12 colon
[25] = system: SNB-19 CNS
[26] = system: SR leukemia
[27] = system: HCT-15 colon
[28] = system: MOLT-4 leukemia
[29] = system: BT-549 breast
[30] = system: PC-3 prostate
[31] = system: CAKI-1 renal
[32] = system: SF-539 CNS
[33] = system: TK-10 renal
[34] = system: SW-620 colon
[35] = system: NCI-H460 NSCLC
[36] = system: SF-268 CNS
[37] = system: EKVX NSCLC
[38] = system: SF-295 CNS
[39] = system: UO-31 renal
[40] = system: MCF7 breast
[41] = system: SK-MEL-2 melanoma
[42] = system: NCI/ADR-RES ovarian
[43] = system: SK-MEL-5 melanoma
[44] = system: OVCAR-3 ovarian
[45] = system: 786-0 renal
[46] = system: SN12C renal
[47] = system: HCC-2998 colon
[48] = system: HOP-62 NSCLC
[49] = system: OVCAR-5 ovarian
[50] = system: SNB-75 CNS
[51] = system: U251 glioblastoma
[52] = system: UACC-257 melanoma
[53] = system: NCI-H522 lung

COC(=O)N1c2ccc3c(nc(Cc4ccccc4)n3[C@H]3CCC[C@H](C(=O)O)C3)c2CC[C@@H]1C
15.6 µM: TGI [43]
> 100 µM: TGI [2] | TGI [7] | TGI [10] | TGI [11] | TGI [12] | TGI [14] | TGI [15] | TGI [19] | TGI [21] | TGI [22] | TGI [23] | TGI [24] | TGI [25] | TGI [27] | TGI [30] | TGI [31] | TGI [32] | TGI [34] | TGI [35] | TGI [36] | TGI [37] | TGI [38] | TGI [39] | TGI [41] | TGI [42] | TGI [45] | TGI [46] | TGI [48] | TGI [50] | TGI [51]
inactive: GI50 [1] 1670 nM | GI50 [2] 20 µM | GI50 [3] 5.43 µM | GI50 [4] 2080 nM | GI50 [6] 6.82 µM | GI50 [7] 26.6 µM | GI50 [8] 8.31 µM | GI50 [9] 11.1 µM | GI50 [10] 24.9 µM | GI50 [11] 10 µM | GI50 [12] 14.5 µM | GI50 [14] 26.8 µM | GI50 [15] 18.9 µM | GI50 [16] 1830 nM | GI50 [17] 3.5 µM | GI50 [18] 4.47 µM | GI50 [19] 3.06 µM | GI50 [20] 7.99 µM | GI50 [21] 13.9 µM | GI50 [22] 6.35 µM | GI50 [23] 14.5 µM | GI50 [24] 14.7 µM | GI50 [25] 9.78 µM | GI50 [26] 1490 nM | GI50 [27] 14.1 µM | GI50 [28] 1940 nM | GI50 [29] 2670 nM | GI50 [30] 4.78 µM | GI50 [31] 1480 nM | GI50 [32] 20.4 µM | GI50 [33] 2160 nM | GI50 [34] > 100 µM | GI50 [35] 31.5 µM | GI50 [36] 24.2 µM | GI50 [37] 47 µM | GI50 [38] 22 µM | GI50 [39] 7.99 µM | GI50 [40] 692 nM | GI50 [41] 14.7 µM | GI50 [42] 82.9 µM | GI50 [43] 2540 nM | GI50 [44] 5.8 µM | GI50 [45] 6.57 µM | GI50 [46] 11.5 µM | GI50 [47] 2050 nM | GI50 [48] 8.43 µM | GI50 [49] 12.5 µM | GI50 [50] > 100 µM | GI50 [51] 25 µM | GI50 [52] 5.22 µM | GI50 [53] 1600 nM
82 µM: TGI [52]
33.4 µM: TGI [40]
40.2 µM: TGI [4]
37.4 µM: TGI [33]
31 µM: TGI [3]
54.4 µM: TGI [6]
314 nM: TGI [5]
33.7 µM: TGI [1]
37.6 µM: TGI [29]
77.4 µM: TGI [20]
active: GI50 [5] 133 nM | GI50 [13] 32.2 nM
18.3 µM: TGI [26]
81.9 µM: TGI [17]
11.8 µM: TGI [47]
19.2 µM: TGI [16]
61.2 µM: TGI [8]
29.5 µM: TGI [18]
89.7 µM: TGI [9]
84.7 µM: TGI [49]
16.5 µM: TGI [28]
18.7 µM: TGI [53]
75 µM: TGI [44]
1510 nM: TGI [13]
